From ChEMBL document CHEMBL1201862, “PubChem BioAssay data set” (2004)
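The compound was tested at five concentrations on cells cultured in 96-well plates, with a 48-hour exposure period. Abbreviation: GI50, concentration required for 50% inhibition of growth.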 Activity calls are given as the source filed them. No stated cut-off is given here; in the data, active = GI50 up to about 1.1 µM and inactive = higher.

Assays:
Experiment in all cases: DTP human tumour cell line panel, 48 h
COLO 205 = system: COLO 205
NCI-H226 = system: NCI-H226
U-251 = system: U-251
KM12 = system: KM12
MDA-N = system: MDA-N
SF-295 = system: SF-295
OVCAR-8 = system: OVCAR-8
A549 = system: A549
K562 = system: K562
CCRF-CEM = system: CCRF-CEM
NCI-H23 = system: NCI-H23
RXF 393 = system: RXF 393
DU-145 = system: DU-145
SK-MEL-2 = system: SK-MEL-2
RPMI-8226 = system: RPMI-8226
HCC 2998 = system: HCC 2998
SK-MEL-28 = system: SK-MEL-28
NCI-H460 = system: NCI-H460
HCT-116 = system: HCT-116
UACC-62 = system: UACC-62

CC(C)C(/C=C/c1ccc(Cl)cc1)=N\NC(=O)N/N=C(/C=C/c1ccc(Cl)cc1)C(C)C
GI50 (COLO 205): 45.3 µM (inactive) | GI50 (NCI-H226): 30.8 µM (inactive) | GI50 (U-251): 16.9 µM (inactive) | GI50 (KM12): > 100 µM (inactive) | GI50 (MDA-N): 36.6 µM (inactive) | GI50 (SF-295): 22.9 µM (inactive) | GI50 (OVCAR-8): 19.4 µM (inactive) | GI50 (A549): 19 µM (inactive) | GI50 (K562): 47.8 µM (inactive) | GI50 (CCRF-CEM): 46.5 µM (inactive) | GI50 (NCI-H23): 21.9 µM (inactive) | GI50 (RXF 393): 20.7 µM (inactive) | GI50 (DU-145): > 100 µM (inactive) | GI50 (SK-MEL-2): 26.4 µM (inactive) | GI50 (RPMI-8226): > 100 µM (inactive) | GI50 (HCC 2998): 83.4 µM (inactive) | GI50 (SK-MEL-28): 50.9 µM (inactive) | GI50 (NCI-H460): 23 µM (inactive) | GI50 (HCT-116): 20.2 µM (inactive) | GI50 (UACC-62): 35.5 µM (inactive)

O=S1(=O)C[C@@H](NCc2ccccc2)[C@H](NCc2ccccc2)C1
GI50 (COLO 205): > 100 µM (inactive) | GI50 (NCI-H226): > 100 µM (inactive) | GI50 (U-251): > 100 µM (inactive) | GI50 (KM12): > 100 µM (inactive) | GI50 (MDA-N): > 100 µM (inactive) | GI50 (SF-295): > 100 µM (inactive) | GI50 (OVCAR-8): > 100 µM (inactive) | GI50 (A549): > 100 µM (inactive) | GI50 (K562): > 100 µM (inactive) | GI50 (CCRF-CEM): > 100 µM (inactive) | GI50 (NCI-H23): > 100 µM (inactive) | GI50 (RXF 393): > 100 µM (inactive) | GI50 (DU-145): > 100 µM (inactive) | GI50 (SK-MEL-2): > 100 µM (inactive) | GI50 (RPMI-8226): > 100 µM (inactive) | GI50 (HCC 2998): > 100 µM (inactive) | GI50 (SK-MEL-28): > 100 µM (inactive) | GI50 (NCI-H460): > 100 µM (inactive) | GI50 (HCT-116): > 100 µM (inactive) | GI50 (UACC-62): > 100 µM (inactive)

CN1C2CCC1C(CO)C(=O)C2 (stereo unspecified)
GI50 (COLO 205): 17.6 µM (inactive) | GI50 (NCI-H226): > 100 µM (inactive) | GI50 (U-251): > 100 µM (inactive) | GI50 (KM12): > 100 µM (inactive) | GI50 (SF-295): > 100 µM (inactive) | GI50 (OVCAR-8): 50.9 µM (inactive) | GI50 (K562): 24.6 µM (inactive) | GI50 (CCRF-CEM): 10.2 µM (inactive) | GI50 (NCI-H23): > 100 µM (inactive) | GI50 (RXF 393): 57.4 µM (inactive) | GI50 (DU-145): > 100 µM (inactive) | GI50 (SK-MEL-2): > 100 µM (inactive) | GI50 (RPMI-8226): 21.3 µM (inactive) | GI50 (HCC 2998): > 100 µM (inactive) | GI50 (SK-MEL-28): > 100 µM (inactive) | GI50 (NCI-H460): > 100 µM (inactive) | GI50 (UACC-62): > 100 µM (inactive)

CN1C2CC(=O)CC1[C@H](O)[C@@H]2O
GI50 (COLO 205): > 100 µM (inactive) | GI50 (NCI-H226): > 100 µM (inactive) | GI50 (U-251): > 100 µM (inactive) | GI50 (KM12): > 100 µM (inactive) | GI50 (MDA-N): > 100 µM (inactive) | GI50 (SF-295): > 100 µM (inactive) | GI50 (OVCAR-8): > 100 µM (inactive) | GI50 (K562): > 100 µM (inactive) | GI50 (CCRF-CEM): > 100 µM (inactive) | GI50 (NCI-H23): > 100 µM (inactive) | GI50 (RXF 393): > 100 µM (inactive) | GI50 (DU-145): > 100 µM (inactive) | GI50 (SK-MEL-2): > 100 µM (inactive) | GI50 (RPMI-8226): > 100 µM (inactive) | GI50 (HCC 2998): > 100 µM (inactive) | GI50 (SK-MEL-28): > 100 µM (inactive) | GI50 (NCI-H460): > 100 µM (inactive) | GI50 (HCT-116): > 100 µM (inactive)

CC1OC1C(=O)C1(O)C(C)C(O)C23OC2(C(O)c2c(O)cccc2C3=O)C1O (stereo unspecified) [CERVICARCIN]
GI50 (COLO 205): 0.0706 µM (active) | GI50 (NCI-H226): 0.31 µM (active) | GI50 (U-251): 0.232 µM (active) | GI50 (KM12): 0.298 µM (active) | GI50 (SF-295): 0.226 µM (active) | GI50 (OVCAR-8): 0.172 µM (active) | GI50 (A549): 0.0488 µM (active) | GI50 (K562): 0.175 µM (active) | GI50 (CCRF-CEM): 0.044 µM (active) | GI50 (NCI-H23): 0.0938 µM (active) | GI50 (RXF 393): 0.191 µM (active) | GI50 (SK-MEL-2): 0.142 µM (active) | GI50 (RPMI-8226): 0.0847 µM (active) | GI50 (HCC 2998): 0.1 µM (active) | GI50 (SK-MEL-28): 0.182 µM (active) | GI50 (NCI-H460): 0.118 µM (active) | GI50 (HCT-116): 0.226 µM (active) | GI50 (UACC-62): 0.245 µM (active)

COc1ccc2c3c1O[C@H]1C[C@@H](O)C=C[C@@]31CCN(C)C2 [GALANTAMINE]
GI50 (COLO 205): > 150 µM (inactive) | GI50 (NCI-H226): > 150 µM (inactive) | GI50 (U-251): > 150 µM (inactive) | GI50 (KM12): > 150 µM (inactive) | GI50 (SF-295): > 150 µM (inactive) | GI50 (OVCAR-8): 23.8 µM (inactive) | GI50 (A549): > 150 µM (inactive) | GI50 (K562): > 150 µM (inactive) | GI50 (CCRF-CEM): > 150 µM (inactive) | GI50 (NCI-H23): > 150 µM (inactive) | GI50 (RXF 393): > 150 µM (inactive) | GI50 (SK-MEL-2): > 150 µM (inactive) | GI50 (RPMI-8226): > 150 µM (inactive) | GI50 (HCC 2998): > 150 µM (inactive) | GI50 (SK-MEL-28): > 150 µM (inactive) | GI50 (NCI-H460): > 150 µM (inactive) | GI50 (HCT-116): > 150 µM (inactive) | GI50 (UACC-62): > 150 µM (inactive)
